The numbers were not newly measured in patent US20240415944A1, “Aqueous aprotinin-containing antiviral pharmaceutical composition” (priority 2021, published 2024), which cites them from elsewhere.

Like-named read-outs stand apart in the source and are kept apart here.

The test system of one data set is influenza. Conditions: adult influenza patients.
The conditions of data set [1]: clinical trials of acute uncomplicated influenza.
The subject of a further data set is kallikrein. Conditions: manufacturer data.
Setting [2] is: kallikrein inactivating units per mg.

Regarding `CCOC(=O)C1=C[C@@H](OC(CC)CC)[C@H](NC(C)=O)[C@@H](N)C1` [Oseltamivir, oseltamivir], in the data set with influenza, the “mean time to relief of clinical symptoms” value was 97.5 h, the “risk of nausea (RR)” value is 1.60 and the “risk of vomiting (RR)” value is listed as 2.43. In addition, the “acceleration of time to relief of clinical symptoms” value with influenza (versus placebo) was 17.8 to 25.2 h.

Consider `COC(=O)OCOc1c2n(ccc1=O)N([C@@H]1c3ccccc3SCc3c1ccc(F)c3F)[C@@H]1COCCN1C2=O` [baloxavir, baloxavir marboxil], for which, in data set [1], the “adverse reaction: bronchitis” value was 3%, the “adverse reaction: diarrhea” value was 3%, the “adverse reaction: headache” value was 1% and the “adverse reaction: nausea” value is on record as 2%. Moreover, the “adverse reaction: sinusitis” value in data set [1] is recorded as 2%.

Consider “aprotinin [aprotinin produced by Sigma-Aldrich (USA)]”, for which, in the data set with kallikrein (setting [2]), the aprotinin activity is on record as 6500 KIU/mg.

With “aprotinin [aprotinin produced by Wanhua Biochem (China) No. NATE-1892]”, the results for the aprotinin activity in the data set on kallikrein (setting [2]) and in the data set with kallikrein were more than 5400 KIU/mg and more than 3.0 EPU/mg, respectively.
